Earlier results in US10647856B2, “Mold resistant formable cork” (THE BOEING COMPANY, priority 2016, dated 2020).
≈ marks a conversion by molar mass, not a printed value.

## O=[N+]([O-])c1ccc(O)cc1 [para-nitrophenol]
  water solubility: 16 mg/mL (≈ 115 mM)
